# Results published in US20100068147A1, “DENGUE DIAGNOSIS AND TREATMENT” (Agency for Science , Technology and Research, priority 2006, published 2010).
# Where a SMILES comes first, the peptide text is derived from it. [ ]: non-standard residue; d: D form. The star is where a group is joined. Nle = CCCC[C@H](N)C(=O)O; Nva = CCC[C@H](N)C(=O)O; Cbz = O=C(OCc1ccccc1)*
# What was measured:
# proteasome = details: cited from earlier work
# [1] = molecular target: calpain I, calpain II, cathepsin B, and cathepsin L; details: one range for the four enzymes; cited from earlier work
# calpain I = molecular target: T1, calpain I (Homo sapiens, UniProt P07384); details: cited from earlier work
# T1 sequence (P07384 1-714): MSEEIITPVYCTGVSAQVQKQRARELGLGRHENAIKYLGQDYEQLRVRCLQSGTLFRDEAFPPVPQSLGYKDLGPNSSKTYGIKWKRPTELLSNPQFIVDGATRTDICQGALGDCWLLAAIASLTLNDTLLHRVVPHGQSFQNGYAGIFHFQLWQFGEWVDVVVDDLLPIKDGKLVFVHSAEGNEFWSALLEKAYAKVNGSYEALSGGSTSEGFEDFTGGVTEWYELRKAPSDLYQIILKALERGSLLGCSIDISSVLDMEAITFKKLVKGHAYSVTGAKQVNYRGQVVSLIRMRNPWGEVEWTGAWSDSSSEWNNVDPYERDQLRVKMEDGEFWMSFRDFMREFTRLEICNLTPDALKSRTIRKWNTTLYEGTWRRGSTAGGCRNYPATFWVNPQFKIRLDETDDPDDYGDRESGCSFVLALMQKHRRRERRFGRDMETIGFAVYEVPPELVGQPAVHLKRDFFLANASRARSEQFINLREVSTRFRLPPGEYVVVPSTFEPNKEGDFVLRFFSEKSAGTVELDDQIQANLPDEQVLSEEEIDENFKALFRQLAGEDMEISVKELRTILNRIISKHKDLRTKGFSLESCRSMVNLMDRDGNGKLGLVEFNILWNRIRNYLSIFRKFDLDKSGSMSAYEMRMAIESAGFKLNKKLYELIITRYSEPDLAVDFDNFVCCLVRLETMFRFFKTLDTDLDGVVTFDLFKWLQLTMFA
# T1 sequence (P04632 1-268 partner): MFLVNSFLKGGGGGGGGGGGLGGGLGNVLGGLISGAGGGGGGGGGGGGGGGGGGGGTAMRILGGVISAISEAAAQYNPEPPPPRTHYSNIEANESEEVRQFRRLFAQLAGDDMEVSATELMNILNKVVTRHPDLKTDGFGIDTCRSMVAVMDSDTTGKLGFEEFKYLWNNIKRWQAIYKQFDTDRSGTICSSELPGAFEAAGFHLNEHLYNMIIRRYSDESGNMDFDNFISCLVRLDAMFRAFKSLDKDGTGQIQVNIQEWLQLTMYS
# dengue virus TSV01 = assay: Plaque assay of supernatants of HepG2 cells infected with dengue virus TSV01 in the presence of ubiquitin-proteasome inhibitors; assay type: cell-based, dengue virus serotype 2; details: for virus replication in the HepG2 cell line by plaque assay of the cell culture supernatants: FIG. 4A, two days after infection, MG-132 0.4 and 0.6 μM, ALLN 10 and 15 μM, MOI 10, vs DMSO alone; for virus replication in the HepG2 cell line by plaque assay of the cell culture supernatants / virus replication by plaque assay: 2 hrs prior to infection; for virus replication by plaque assay: FIG. 7G, HepG2, MG-132 0.04 and 0.4 μM, ALLN 1 and 10 μM, MOI 10, 48 hrs
# Experimental: The HepG2 cell line is infected with TSV01, a serotype 2 dengue virus (Genbank AY037116; McBride and Vasudevan, 1995), and cells harvested over a succession of time points up to three days post-infection.
# In a second experiment we applied specific compounds to our in vitro experiment (described above) that are known to alter the function of these (and other) genes in this pathway (Table E1 below).
# HepG2 cells (ATCC) are treated with proteasome inhibitors prior to infection with dengue virus. […]
# HepG2 cells are cultured ON in 24 well plates. […]
# Cell culture supernatants are collected and assayed for dengue virus by plaque assay. Plaque forming units per ml are expressed as the mean percentage of the highest number of pfu/ml (DMSO alone)±SEM, (n=3). Cytotoxicity is measured using FDA and results are expressed as the mean percentage compared to DMSO alone±SEM, (n=3). “*” indicates p<0.05 and “**”indicates p<0.005 by students t-test comparing each treatment to DMSO alone.
# The type 2 dengue virus strain TSV01 is obtained from an outbreak in Townsville, Australia (McBride and Vasudevan 1995) (GenBank, accession number AY037116). TSV01 is cultured in the C6/36 cell line (from the Aedes albopictus mosquito) with virus added to cells in a T175 flask (MOI 0.01) and incubated for 1 hr at 28° C. with brief mixing every 20 min. Media is removed and cells washed in fresh media then media with 5% FBS added and cells incubated for 5 days at 28° C. Cell culture supernatants are removed and centrifuged at 1000×g for 10 min at 4° C. then pooled and stored in aliquots at −80° C. Heat-inactivated virus is prepared by incubating virus samples at 55° C. for 1 hr, with heat-inactivation confirmed by plaque assay.
# For plaque assay, BHK-21 cells are cultured ON in 24 well plates before media is removed and serial dilutions (10-fold) of cell culture supernatants added to individual wells. Plates are incubated for 1 hr before media is aspirated and replaced with 0.5 ml of 0.8% methyl-cellulose medium (with 2% FBS). Plates are then incubated for 5 days before the media is removed and cells fixed in 4% formaldehyde for 20 min then rinsed in water and stained with crystal violent for 20 min and rinsed again. Plaques are counted manually and concentrations of plaque forming units per ml (pfu/ml) of the sample cell culture supernatant calculated.
# calpain II = molecular target: T2, calpain II (Homo sapiens, UniProt P17655); details: cited from earlier work
# T2 sequence (P17655 1-700): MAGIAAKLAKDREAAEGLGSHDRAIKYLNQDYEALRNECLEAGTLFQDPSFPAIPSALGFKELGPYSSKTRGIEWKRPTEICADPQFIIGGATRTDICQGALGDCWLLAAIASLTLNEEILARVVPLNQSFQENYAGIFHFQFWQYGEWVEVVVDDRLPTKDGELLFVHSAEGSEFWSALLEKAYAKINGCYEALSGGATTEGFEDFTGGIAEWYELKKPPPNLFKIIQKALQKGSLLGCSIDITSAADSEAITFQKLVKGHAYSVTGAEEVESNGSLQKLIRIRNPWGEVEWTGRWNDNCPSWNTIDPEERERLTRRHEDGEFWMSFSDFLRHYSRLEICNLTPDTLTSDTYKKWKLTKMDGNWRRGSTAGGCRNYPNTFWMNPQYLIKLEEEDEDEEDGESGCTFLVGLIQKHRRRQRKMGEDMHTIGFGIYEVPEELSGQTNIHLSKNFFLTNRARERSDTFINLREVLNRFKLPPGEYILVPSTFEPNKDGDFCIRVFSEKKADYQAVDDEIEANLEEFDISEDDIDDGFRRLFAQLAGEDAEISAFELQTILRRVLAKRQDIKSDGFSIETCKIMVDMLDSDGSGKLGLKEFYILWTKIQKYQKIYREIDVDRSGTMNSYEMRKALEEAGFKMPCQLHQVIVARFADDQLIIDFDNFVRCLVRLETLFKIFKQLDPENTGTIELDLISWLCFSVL
# T2 sequence (P04632 1-268 partner): T1 sequence (P04632 1-268 partner)
# cathepsin L = cathepsin L (Homo sapiens, UniProt P07711); details: cited from earlier work
# Sequence of cathepsin L (P07711 114-333, species assumed): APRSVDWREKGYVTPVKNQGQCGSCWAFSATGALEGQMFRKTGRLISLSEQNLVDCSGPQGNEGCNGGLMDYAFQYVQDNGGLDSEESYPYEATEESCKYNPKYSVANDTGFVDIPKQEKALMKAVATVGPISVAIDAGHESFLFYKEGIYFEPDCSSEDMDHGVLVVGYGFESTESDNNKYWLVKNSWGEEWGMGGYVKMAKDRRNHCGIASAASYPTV
# 20S proteasome = details: cited from earlier work
# 26S proteasome = details: cited from earlier work
# NF-kB activation = details: cited from earlier work
# 26S complex = details: cited from earlier work
# [2] = molecular target: chymotrypsin-like activity (Homo sapiens, UniProt P28074); details: cited from earlier work
compound,measurement,setting,value
"CCCC[C@@H](C=O)NC(=O)[C@H](CC(C)C)NC(=O)[C@H](CC(C)C)NC(C)=O [ALLN, N-Acetyl-Leu-Leu-Nle-CHO] (Ac-Leu-Leu-[Nle]-aldehyde)",Ki,proteasome,6 µM
same,Ki,[1],0.15 to 0.5 µM
same,Ki,calpain I,0.19 µM
same,virus replication in the HepG2 cell line by plaque assay of the cell culture supernatants,dengue virus TSV01,significantly reduced
same,virus replication by plaque assay,dengue virus TSV01,significantly and consistently reduced
same,Ki,calpain II,0.22 µM
same,Ki,cathepsin L,0.0005 µM
"CSCC[C@@H](C=O)NC(=O)[C@H](CC(C)C)NC(=O)[C@H](CC(C)C)NC(C)=O [Calpain Inhibitor II, Ac-Leu-Leu-Methional] (Ac-Leu-Leu-Met-aldehyde)",inhibition of proteasome activity,proteasome,does not
same,Ki,[1],0.12 to 0.6 µM
"C[C@@H]1C[C@H]2[C@@H]3CCC4=CC(=O)C=C[C@]4(C)[C@@]3(F)[C@@H](O)C[C@]2(C)[C@@]1(O)C(=O)CO [Dexamethasone, dexamethasone]",effect on viral replication,"dengue virus TSV01; HepG2 infection model, data not shown",no effect
"CCC[C@@H](C=O)NC(=O)[C@H](CC(C)C)NC(=O)[C@H](CC(C)C)NC(=O)OCc1ccccc1 [MG-115, Z-Leu-Leu-Norvalinal] (Cbz-Leu-Leu-[Nva]-aldehyde)",Ki,20S proteasome,0.021 µM
same,Ki,26S proteasome,0.035 µM
"CC(C)C[C@@H](C=O)NC(=O)[C@H](CC(C)C)NC(=O)[C@H](CC(C)C)NC(=O)OCc1ccccc1 [MG-132, Carbobenzoxy-L-leucyl-L-leucyl-L-leucinal] (Cbz-Leu-Leu-Leu-aldehyde)",IC50,NF-kB activation,3 µM
same,"effective concentrations, reduction of degradation of ubiquitin-conjugated proteins",26S complex,micromolar concentrations. Sequence: Z-Leu-
same,Ki,proteasome,0.004 µM
same,virus replication in the HepG2 cell line by plaque assay of the cell culture supernatants,dengue virus TSV01,significantly reduced
same,virus replication by plaque assay,dengue virus TSV01,significantly and consistently reduced
"CC(C)C[C@H](NC(=O)OCc1ccccc1)C(=O)N[C@@H](CC(C)C)C(=O)N[C@H](C=O)Cc1ccccc1 [Proteasome Inhibitor II, Z-Leu-Leu-Phenylalaninal] (Cbz-Leu-Leu-Phe-aldehyde)",Ki,[2],0.46 µM
CC(C)[C@H](O)[C@@]12NC(=O)[C@H](C)[C@@H]1OC2=O [clasto-Lactacystin β-Lactone],"sensitivity relative to its precursor, lactacystin",20S proteasome; in vitro,"~10-fold more sensitive than its precursor,"
